In patent US11883426B2, “Treatment for methamphetamine cardiovascular disease” (priority 2020, dated 2024):
Where a name gives a salt, the structure may show the parent alone.

Assays:
[1] = Sulfide release with Sugammadex in WT and CSE knockout mice; type: in vivo, mouse; settings: single injection 0.2 mg/kg
Method: . Free sulfide was measured using 50 μl of plasma with MBB; whereas for detection of ALS and BSS, 50 μl of plasma was added separately into two sets of 4 mL BD vacutainer tubes. […]. Following a 30-min incubation on a nutator, the reaction liquid was removed, and the evolved sulfide gas subsequently trapped by adding 500 μl of 100 mM Tris-HCl buffer (pH 9.5, 0.1 mM DTPA) into the BD vacutainer tube and incubated again for 30 min on a nutator mixer. […]. Determination of ALS was made by reacting plasma samples with acidic phosphate buffer alone and subsequent trapping of evolved sulfide. Measurement of BSS was determined by subtracting the acid labile value from the total sulfide protocol containing TCEP reductant treatment under acidic conditions. […].
In clinical practice, sugammadex is administered at a dose of 4 mg/kg to up to 16 mg/kg for its current use. In the inventors' mice studies, the inventors used a single injection of 0.2 mg/kg for pharmacokinetic studies, which was a 20 to 80 times lower than the clinical usage of sugammadex.

[2] = Sulfide release with Sugammadex in human plasma; settings: human blood
Method: (§1) . Free sulfide was measured using 50 μl of plasma with MBB; whereas for detection of ALS and BSS, 50 μl of plasma was added separately into two sets of 4 mL BD vacutainer tubes. […]. Following a 30-min incubation on a nutator, the reaction liquid was removed, and the evolved sulfide gas subsequently trapped by adding 500 μl of 100 mM Tris-HCl buffer (pH 9.5, 0.1 mM DTPA) into the BD vacutainer tube and incubated again for 30 min on a nutator mixer. […]. Determination of ALS was made by reacting plasma samples with acidic phosphate buffer alone and subsequent trapping of evolved sulfide. Measurement of BSS was determined by subtracting the acid labile value from the total sulfide protocol containing TCEP reductant treatment under acidic conditions. […]

CSE [3] = target: T1, CSE (Homo sapiens, UniProt P32929); test: CSE activity with Sugammadex in human plasma; parameters: from tissue; host or cells: human blood plasma (lithium heparin)
T1 sequence (P32929 whole entry): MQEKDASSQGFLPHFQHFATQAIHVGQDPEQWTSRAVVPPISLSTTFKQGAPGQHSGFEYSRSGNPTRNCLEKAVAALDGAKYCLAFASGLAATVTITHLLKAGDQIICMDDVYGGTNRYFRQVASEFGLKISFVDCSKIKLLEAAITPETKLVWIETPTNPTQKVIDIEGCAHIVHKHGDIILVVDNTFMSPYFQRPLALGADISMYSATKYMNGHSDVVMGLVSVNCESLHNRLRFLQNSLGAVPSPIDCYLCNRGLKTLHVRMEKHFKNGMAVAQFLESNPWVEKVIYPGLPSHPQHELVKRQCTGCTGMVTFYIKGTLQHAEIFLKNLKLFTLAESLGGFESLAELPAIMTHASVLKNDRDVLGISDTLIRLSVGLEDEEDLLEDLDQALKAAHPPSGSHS
Method: (§2) 2.9 Cystathionine γ-lyase (CSE) activity measurement: CSE activity was measured as previously reported. Plasma or tissue lysates were incubated with 2 mM cystathionine, 0.25 mM pyridoxal 5′-phosphate in 100 mM Tris-HCl buffer (pH 8.3) for 60 min at 37° C. 10% Trichloroacetic acid was added into reaction mixture. After centrifugation, the supernatant was mixed with 1% ninhydrin reagent and incubated for 5 min in a boiling-water bath. After heating, the solution was cooled on ice for 2 minutes and color reaction development measured 20 minutes at 455 nm using a spectrophotometer (Biotek). CSE activity was assessed by cystathionine consumption and enzyme activity expressed as fold change calculated from nanomoles of cystathionine consumed per mg of total protein per hour of incubation.

[4] = system: CSE, p-eNOS and total eNOS; test: Western blot of mouse skeletal muscle; type: in vivo; settings: methamphetamine treated mice
Method: (§3) 2.4 ‘Binge and crash’ mouse methamphetamine model: Twelve-week-old male WT (C57BL6/J) male mice were used for these experiments. Mice were exposed to methamphetamine according to a known protocol that models binge methamphetamine exposure in humans. C57BL/6 male mice received 0-6 mg/kg methamphetamine (Methamphetamine HCl, Sigma-Aldrich, St. Louis, Mo.) through subcutaneous (s.c.) injection five days in a week for four weeks. Methamphetamine was dissolved in a sterile saline (Sigma-Aldrich) solution (0.9% w/v NaCl). Vehicle treated mice received the same volume of saline at all-time points for four weeks. Briefly, methamphetamine-exposed and saline-control mice were injected subcutaneously with methamphetamine or saline in a volume of 5 ml/kg with an insulin syringe. Alternating sites of injection were used to avoid any possible damage to tissue and possible stress of the animal. The dose of methamphetamine was escalated over the course of the first cycle, which occurs during the first week of injections (days 1-5) followed by three weeks of repeated cycles of meth injections (days 8-12, 15-19, and 22-26). Mice received 4 injections per day, 2 hours apart with doses of meth including 0, 1, 2, 3, 4, 5, and 6 mg/kg subcutaneously. At the end of the 4 weeks, mice were sacrificed by isoflurane overdose, plasma and tissue were harvested.
2.10 Western blot analysis: Mouse skeletal muscle tissues were homogenized in a solution containing 50 mM Tris buffer (pH 7.4), 2 mM EDTA, 5 mM EGTA, 0.1% SDS, a protease inhibitor cocktail (Roche, Indianapolis, Ind.), and phosphatase inhibitor cocktail type I and II (Sigma, Saint Louis, Mo.). Homogenates were centrifuged at 500×g for 15 min and supernatants were collected. Protein concentrations were analyzed using the Bradford protein assay (BIORAD, Hercules, Calif.). […] Chemiluminescent bands were detected and quantified using NIH Image J software.

H2S [5] = test: Sulfide pools in plasma of human methamphetamine users; settings: methamphetamine-users vs age matched healthy controls
Method: 2.6 Human blood collection: Human subjects were interviewed, and medical record data were collected for analysis of methamphetamine-use. Blood samples were collected from already-established catheterization into 6 mL BD vacutainer tubes with lithium heparin. Samples were transported to the lab within 15 min on ice and were centrifuged at 1500 RCF for 4 min at 4° C.
as §1

CSE [6] = target: T1, CSE; test: CSE enzyme activity in endothelial cells; type: cell-based; parameters: host or cells: HUVEC; settings: HUVECs, 100 μM, 30 min, vs PBS control
Method: 2.2 Cell culture and treatments: Human umbilical vein endothelial cells (HUVECs) were purchased from Lifeline Cell Technology (Cat. No. FC-0044) and cultured in VascuLife® Basal Medium (Cat. No. LM-0002) supplemented with the appropriate LifeFactors® Kit (No. LL-0003). All cells were grown in tissue culture flasks at 37° C. and 5% CO2. HUVECs from passages 2-4 were used in the experiments.
as §2

NO [7] = test: NO metabolite measurements in mouse plasma and skeletal muscle; type: in vivo
superoxide = test: Oxidative stress measurement (DHE staining) in skeletal muscle; type: in vivo, mouse; settings: skeletal muscle sections, methamphetamine vs saline
Method: as §3, with “The dose of methamphetamine was escalated over the course of the first cycle, which occurs during the first week of injections (days 1-5) followed by three weeks of repeated cycles of meth injections (days 8-12, 15-19, and 22-26). Mice received 4 injections per day, 2 hours apart with doses of meth including 0, 1, 2, 3, 4, 5, and 6 mg/kg subcutaneously. At the end of the 4 weeks, mice were sacrificed by isoflurane overdose, plasma and tissue were harvested.” left out
2.12 Oxidative Stress measurement: Levels of oxidative stress were measured by staining skeletal muscle tissue sections with 5 μM Dihydroethidium (DHE; Sigma-Aldrich, CA USA) and visualized using a NIKON ECLIPSE Ti-E microscope (Nikon Instruments Inc., Melville, N.Y.) for image acquisition. […]

NO [8] = test: Total NO in plasma of human methamphetamine users; settings: methamphetamine-users vs healthy controls
femoral artery = settings: mouse, in vivo
CSE [9] = type: in vivo, mouse; settings: skeletal muscle tissues of methamphetamine treated mice
skeletal muscle tissue = type: in vivo, mouse
H2S [10] = type: in vivo, mouse
[11] = 4-week binge and crash methamphetamine
[12] = skeletal muscle, methamphetamine treated mice
[13] = skeletal muscle, methamphetamine treatment
[14] = 4-week binge and crash methamphetamine vs controls

Compound: O=C([O-])CCSC[C@@H]1OC2O[C@@H]3[C@@H](O)[C@H](O)C(O[C@@H]4[C@@H](O)[C@H](O)C(O[C@@H]5[C@@H](O)[C@H](O)C(O[C@@H]6[C@@H](O)[C@H](O)C(O[C@@H]7[C@@H](O)[C@H](O)C(O[C@@H]8[C@@H](O)[C@H](O)C(O[C@@H]9[C@@H](O)[C@H](O)C(O[C@@H]1[C@@H](O)[C@@H]2O)O[C@H]9CSCCC(=O)[O-])O[C@H]8CSCCC(=O)[O-])O[C@H]7CSCCC(=O)O)O[C@H]6CSCCC(=O)O)O[C@H]5CSCCC(=O)O)O[C@H]4CSCCC(=O)[O-])O[C@H]3CSCCC(=O)[O-].[Na+].[Na+].[Na+].[Na+].[Na+] [Sugammadex]
- plasma sulfide levels ([1]; CSE knockout mice): increases
- plasma sulfide levels ([1]; wild type mice): increases
- bound sulfane sulfur [2]: increases
- total sulfide levels [2]: increases
- plasma CSE activity (CSE [3]): increased

Compound: CN[C@@H](C)Cc1ccccc1 [methamphetamine, Methamphetamine hydrochloride]
- CSE protein expression [4]: decreased expressions
- p-eNOS protein expression [4]: decreased expressions
- total eNOS protein [4]: no change
- acid-labile sulfide levels (H2S [5]): decrease
- CSE enzyme activity (CSE [6]): substantially decreased
- plasma S-nitrosothiol (bound pool) (NO [7]; [11]): decreased
- plasma free nitrite (NO [7]; [11]): decreased
- plasma total NO levels (NO [7]; [11]): two-fold reduction
- skeletal muscle total NO (NO [7]; methamphetamine treated mice vs saline): significantly reduced
- DHE fluorescence (oxidative stress) (superoxide): significant increase
- total NO levels (NO [8]): trend of decreasing
- flow mediated vasodilation responses (femoral artery): significantly blunted
- mean blood flow velocity recovery after occlusion removal (femoral artery): significantly blunts
- CSE activity (CSE [9]): significant decrease
- eNOS expression (skeletal muscle tissue; methamphetamine treated mice): no change
- CBS gene expression (skeletal muscle tissue; [12]): no significant changes
- CSE gene expression (skeletal muscle tissue; [12]): significantly decreased
- ICAM-1 expression (skeletal muscle tissue; [13]): concomitant increase
- VCAM-1 expression (skeletal muscle tissue; [13]): concomitant increase
- NOx4 expression (skeletal muscle tissue; skeletal muscles, methamphetamine treatment): marginal increase
- reduction in plasma total sulfide (H2S [10]; [11]): 3 fold
- plasma acid-labile sulfide (H2S [10]; [14]): significant reduction
- plasma bound sulfane sulfur (H2S [10]; [14]): significant reduction
